In patent US11447480B2, “Compound exhibiting enteropeptidase inhibitory activity” (LG CHEM, LTD., priority 2018, dated 2022):

Each molecule was assayed against Recombinant Human Enteropeptidase (Homo sapiens (Human), UniProt P98073) (assay: Enteropeptidase Inhibition Assay). Conditions: substrate Acetyl-Asp-Asp-Asp-Asp-Lys-AFC 30 μM, 30° C., 1 hour; Ki calculated from IC50 using Cheng-Prusoff equation.
Format: biochemical
Procedure: Enteropeptidase Inhibition Assay
The inhibitory activity of the enteropeptidase inhibitor synthesized using the purified Recombinant Human Enteropeptidase and the substrate Acetyl-Asp-Asp-Asp-Asp-Lys-AFC (BioVision) was measured. 7.2 ng/mL of Enteropeptidase diluted with a buffer (20 mM Tris, 50 mM NaCl, pH 7.5) in a 96 well plate (Costar), 30 μM of Acetyl-Asp-Asp-Asp-Asp-Lys-AFC, several concentrations of Enteropeptidase inhibitors (1% DMSO concentration) were dispensed such that a final volume was 100 μL, and then the enzyme reaction was carried out at 30° C. for 1 hour. At this time, 1% DMSO, a substrate and Enteropeptidase instead of the compound were dispensed onto positive control wells, and 1% DMSO and a substrate were dispensed onto negative control wells. The enzyme reaction was […] using an excitation wavelength of 380 nm and an emission wavelength of 500 nm in a fluorescence spectrometer, and then the rate of increase in fluorescence (milli-units per min) between 20 and 60 minutes was measured.
The fluorescence measurement values reduced by the inhibitor diluted at each concentration were converted into relative values % of the positive control group (100% reactivity) and the negative control group (0% reactivity), and used to calculate IC50 values. IC50 is the concentration of the inhibitor that inhibits the enzyme activity by 50%, and was calculated using PRISM (GraphPad). Ki values were calculated from the IC50 values using Cheng-Prusoff equation.

Sequence of Recombinant Human Enteropeptidase (P98073 whole entry): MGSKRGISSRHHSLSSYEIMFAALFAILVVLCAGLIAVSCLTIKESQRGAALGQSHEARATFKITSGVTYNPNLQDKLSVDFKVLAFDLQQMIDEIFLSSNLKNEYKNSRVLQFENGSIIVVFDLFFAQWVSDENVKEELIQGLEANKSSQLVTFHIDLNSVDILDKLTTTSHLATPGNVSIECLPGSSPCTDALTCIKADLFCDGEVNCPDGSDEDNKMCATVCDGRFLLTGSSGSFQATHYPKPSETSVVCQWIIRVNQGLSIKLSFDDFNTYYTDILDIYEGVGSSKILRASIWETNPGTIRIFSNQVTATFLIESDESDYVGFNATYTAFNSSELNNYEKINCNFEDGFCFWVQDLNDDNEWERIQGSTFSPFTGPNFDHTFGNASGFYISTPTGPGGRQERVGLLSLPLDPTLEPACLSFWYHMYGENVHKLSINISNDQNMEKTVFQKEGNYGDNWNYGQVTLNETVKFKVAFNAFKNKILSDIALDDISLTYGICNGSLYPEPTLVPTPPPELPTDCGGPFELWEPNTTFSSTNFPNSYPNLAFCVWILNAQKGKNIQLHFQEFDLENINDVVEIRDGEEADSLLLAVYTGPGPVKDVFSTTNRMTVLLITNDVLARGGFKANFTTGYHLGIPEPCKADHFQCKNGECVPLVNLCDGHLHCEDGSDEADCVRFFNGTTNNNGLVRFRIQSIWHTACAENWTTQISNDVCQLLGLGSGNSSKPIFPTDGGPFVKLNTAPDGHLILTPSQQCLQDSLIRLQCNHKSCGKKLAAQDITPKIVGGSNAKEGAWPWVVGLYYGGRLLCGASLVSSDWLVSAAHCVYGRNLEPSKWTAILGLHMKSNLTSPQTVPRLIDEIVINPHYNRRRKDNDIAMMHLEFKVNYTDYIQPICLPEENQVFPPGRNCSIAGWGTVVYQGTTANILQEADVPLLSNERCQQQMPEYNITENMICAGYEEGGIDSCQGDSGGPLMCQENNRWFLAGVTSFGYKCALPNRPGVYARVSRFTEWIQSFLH

| SMILES | Ki [nM] |
| --- | --- |
| COC(=O)C(C)(C)CN(C)c1ncc(C(=O)Oc2ccc(C(=N)N)cc2)s1 [Example 18, 4-Carbamimidoylphenyl 2-((3-methoxy-2,2-dimethyl-3-oxopropyl)(methyl)amino)thiazole-5-carboxylate] | 8.9 |
| N=C(N)c1ccc(OC(=O)c2ccc3nc(N4CCC(NC(=O)c5ccccc5)CC4)sc3c2)c(F)c1 [Example 82, 4-Carbamimidoyl-2-fluorophenyl 2-(4-benzoamidopiperidin-1-yl)benzo[d]thiazole-6-carboxylate] | 1.9 |
| CCN(CCC(=O)Nc1ccc(C(=O)OC(C)(C)C)cc1)c1ncc(C(=O)Oc2ccc(C(=N)N)cc2F)s1 [Example 52, 4-Carbamimidoyl-2-fluorophenyl 2-((3-((4-(tert-butoxycarbonyl)phenyl)amino)-3-oxopropyl)(ethyl)amino)thiazole-5-carboxylate] | 82 |
| CN(CCC(=O)O)c1nc2ccc(C(=O)Oc3ccc(C(=N)N)cc3)cc2s1 [Example 62, 3-((6-((4-Carbamimidoylphenoxy)carbonyl)benzo[d]thiazol-2-yl)(methyl)amino)propanoic Acid] | 4.3 |
| COC(=O)CCCN(C)c1nc2ccc(C(=O)Oc3ccc(C(=N)N)cc3)cc2s1 [Example 63, 4-Carbamimidoylphenyl 2-((4-methoxy-4-oxobutyl)(methyl)amino)benzo[d]thiazole-6-carboxylate] | 13 |
| N=C(N)c1ccc(OC(=O)c2cnc(NCCC(=O)O)s2)cc1 [Example 13] | 4.8 |
| CN(CCCC(=O)O)C(=O)C1CCN(c2ncc(C(=O)Oc3ccc(C(=N)N)cc3F)s2)CC1 [Example 44, 4-(1-(5-((4-carbamimidoyl-2-fluorophenoxy)carbonyl)thiazol-2-yl)-N-methylpiperidine-4-carboxamido)butanoic Acid] | 1.6 |
| CC(C)(CNC(=O)C1CCN(c2ncc(C(=O)Oc3ccc(C(=N)N)cc3)s2)CC1)C(=O)O [Example 36] | 9.7 |
| COC(=O)C1CCN(c2ncc(C(=O)Oc3ccc(C(=N)N)cc3F)s2)CC1 [Example 4, 4-Carbamimidoyl-2-fluorophenyl 2-(4-(methoxycarbonyl)piperidin-1-yl)thiazole-5-carboxylate] | 0.92 |
| COC(=O)CCCN(C)c1nc2ccc(C(=O)Oc3ccc(C(=N)N)cc3F)cc2s1 [Example 71, 4-Carbamimidoyl-2-fluorophenyl 2-((4-methoxy-4-oxobutyl)(methyl)amino)benzo[d]thiazole-6-carboxylate] | 1.1 |
| N=C(N)c1ccc(OC(=O)c2cnc(N3CCC(C(=O)O)CC3)s2)cc1 [Example 2, 1-(5-((4-Carbamimidoylphenoxy)carbonyl)thiazol-2-yl)piperidine-4-carboxylic Acid] | 4.9 |
| COC(=O)C(C)(C)CNC(=O)C1CCN(c2ncc(C(=O)Oc3ccc(C(=N)N)cc3)s2)CC1 [Example 32, 4-Carbamimidoylphenyl 2-(4-((3-methoxy-2,2-dimethyl-3-oxopropyl)carbamoyl)piperidin-1-yl)thiazole-5-carboxylate] | 18 |
| N=C(N)Nc1ccc(OC(=O)c2cnc(N3CCC(C(=O)O)CC3)s2)cc1 [Example 6, 1-(5-((4-Guanidinophenoxy)carbonyl)thiazol-2-yl)piperidine-4-carboxylic Acid] | 220 |
| COC(=O)CCCN(C)c1ncc(C(=O)Oc2ccc(C(=N)N)cc2F)s1 [Example 21, 4-Carbamimidoyl-2-fluorophenyl 2-((4-methoxy-4-oxobutyl)(methyl)amino)thiazole-5-carboxylate] | 3 |
| N=C(N)c1ccc(OC(=O)c2ccc3nc(N4CCC(C(=O)Nc5ccccc5)CC4)sc3c2)cc1 [Example 80, 4-Carbamimidoylphenyl 2-(4-(phenylcarbamoyl)piperidin-1-yl)benzo[d]thiazole-6-carboxylate] | 23 |
| CCN(CC(C)(C)C(=O)OC)c1nc2ccc(C(=O)Oc3ccc(C(=N)N)cc3F)cc2s1 [Example 70, 4-Carbamimidoyl-2-fluorophenyl 2-(ethyl(3-methoxy-2,2-dimethyl-3-oxopropyl)amino)benzo[d]thiazole-6-carboxylate] | 3.5 |
| COC(=O)C1CCN(c2nc3ccc(C(=O)Oc4ccc(C(=N)N)cc4)cc3s2)CC1 [Example 57, 4-Carbamimidoylphenyl 2-(4-(methoxycarbonyl)piperidin-1-yl)benzo[d]thiazole-6-carboxylate] | 13 |
| N=C(N)c1ccc(OC(=O)c2cnc(N3CCC(C(=O)NCCC(=O)O)CC3)s2)cc1 [Example 34] | 8.9 |
| CCN(CCC(=O)Nc1cccc(C(=O)OC)c1)c1ncc(C(=O)Oc2ccc(C(=N)N)cc2F)s1 [Example 51, 4-Carbamimidoyl-2-fluorophenyl 2-(ethyl(3-((3-(methoxycarbonyl)phenyl)amino)-3-oxopropyl)amino)thiazole-5-carboxylate] | 9.7 |

| SMILES | Ki [nM] |
| --- | --- |
| N=C(N)c1ccc(OC(=O)c2cnc(N3CCC(C(=O)O)C3)s2)cc1 (stereo not shown) [Example 17, 1-(5-((4-Carbamimidoylphenoxy)carbonyl)thiazol-2-yl)pyrrolidine-3-carboxylic Acid] | 5.4 |
| CCN(CCC(=O)Nc1cccc(C(=O)OC(C)(C)C)c1)c1ncc(C(=O)Oc2ccc(C(=N)N)cc2F)s1 [Example 53] | 12 |
| COC(=O)CCCN(C)c1ncc(C(=O)Oc2ccc(C(=N)N)cc2)s1 [Example 11, 4-Carbamimidoylphenyl 2-((4-methoxy-4-oxobutyl)(methyl)amino)thiazole-5-carboxylate] | 21 |
| CN(CCCC(=O)O)c1nc2ccc(C(=O)Oc3ccc(C(=N)N)cc3F)cc2s1 [Example 76, 4-((6-((4-Carbamimidoyl-2-fluorophenoxy)carbonyl)benzo[d]thiazol-2-yl)(methyl)amino)butanoic Acid] | 0.57 |
| COC(=O)CCNC(=O)C1CCN(c2ncc(C(=O)Oc3ccc(C(=N)N)cc3F)s2)CC1 [Example 38, 4-Carbamimidoyl-2-fluorophenyl 2-(4-((3-methoxy-3-oxopropyl)carbamoyl)piperidin-1-yl)thiazole-5-carboxylate] | 2.6 |
| N=C(N)c1ccc(OC(=O)c2cnc(N3CCC(C(=O)O)CC3)s2)c(F)c1 [Example 7, 1-(5-((4-Carbamimidoyl-2-fluorophenoxy)carbonyl)thiazol-2-yl)piperidine-4-carboxylic Acid] | 0.6 |
| CN(CCCC(=O)O)c1ncc(C(=O)Oc2ccc(C(=N)N)cc2F)s1 [Example 22, 4-((5-((4-Carbamimidoyl-2-fluorophenoxy)carbonyl)thiazol-2-yl)(methyl)amino)butanoic Acid] | 0.57 |
| COC(=O)C1CCN(c2ncc(C(=O)Oc3ccc(C(=N)N)cc3)s2)CC1 [Example 3, 4-Carbamimidoylphenyl 2-(4-(methoxycarbonyl)piperidin-1-yl)thiazole-5-carboxylate] | 17 |
| N=C(N)c1ccc(OC(=O)c2cnc(N3CCC(NC(=O)c4ccccc4)CC3)s2)cc1 [Example 28, 4-Carbamimidoylphenyl 2-(4-benzamidopiperidin-1-yl)thiazole-5-carboxylate] | 6.5 |
| COC(=O)CCNc1nc2ccc(C(=O)Oc3ccc(C(=N)N)cc3)cc2s1 [Example 59, 4-Carbamimidoylphenyl 2-((3-methoxy-3-oxopropyl)amino)benzo[d]thiazole-6-carboxylate] | 14 |
| CCN(CCC(=O)OC)c1nc2ccc(C(=O)Oc3ccc(C(=N)N)cc3)cc2s1 [Example 61, 4-Carbamimidoylphenyl 2-(ethyl(3-methoxy-3-oxopropyl)amino)benzo[d]thiazole-6-carboxylate] | 10 |
| N=C(N)c1ccc(OC(=O)c2ccc3nc(N4CCC(C(=O)O)CC4)sc3c2)cc1 [Example 58, 1-(6-((4-Carbamimidoylphenoxy)carbonyl)benzo[d]thiazol-2-yl)piperidine-4-carboxylic Acid] | 7.4 |
| N=C(N)c1ccc(OC(=O)c2cnc(N3CCC(C(=O)NCC(=O)O)CC3)s2)cc1 [Example 33] | 8.2 |
| CCN(CCC(=O)N[C@H](CCC(=O)O)C(=O)O)c1ncc(C(=O)Oc2ccc(C(=N)N)cc2F)s1 [Example 49, (3-((5-((4-Carbamimidoyl-2-fluorophenoxy)carbonyl)thiazol-2-yl)(ethyl)amino)propanoyl)-D-glutamic Acid] | 0.57 |
| COC(=O)CNC(=O)C1CCN(c2ncc(C(=O)Oc3ccc(C(=N)N)cc3F)s2)CC1 [Example 37, 4-Carbamimidoyl-2-fluorophenyl 2-(4-((2-methoxy-2-oxoethyl)carbamoyl)piperidin-1-yl)thiazole-5-carboxylate] | 1.8 |
| N=C(N)c1ccc(OC(=O)c2ccc3nc(N4CCC(NC(=O)c5ccccc5)CC4)sc3c2)cc1 [Example 83, 4-Carbamimidoylphenyl 2-(4-benzoamidopiperidin-1-yl)benzo[d]thiazole-6-carboxylate] | 9.7 |
| COC(=O)CCCN(C)C(=O)C1CCN(c2ncc(C(=O)Oc3ccc(C(=N)N)cc3F)s2)CC1 [Example 41, 4-Carbamimidoyl-2-fluorophenyl 2-(4-((4-methoxy-4-oxobutyl)(methyl)carbamoyl)piperidin-1-yl)thiazole-5-carboxylate] | 1.8 |
| CN(CCCC(=O)O)c1ncc(C(=O)Oc2ccc(C(=N)N)cc2)s1 [Example 15] | 5.7 |
